In patent US6953855B2 (priority 1998, dated 2005):

Biological target: T1, muscle-type receptors (α1β1γδ subtype in human TE671/RD clonal cells) (Homo sapiens, UniProt P02708+P07510+Q07001)
T1 construct: endogenous in cells; host or cells: human TE671/RD rhabdomyosarcoma cells
Test: cell-based
Conditions: read-out: agonist activity, % of nicotine's response (human muscle)

T1 sequence (P02708 21-457): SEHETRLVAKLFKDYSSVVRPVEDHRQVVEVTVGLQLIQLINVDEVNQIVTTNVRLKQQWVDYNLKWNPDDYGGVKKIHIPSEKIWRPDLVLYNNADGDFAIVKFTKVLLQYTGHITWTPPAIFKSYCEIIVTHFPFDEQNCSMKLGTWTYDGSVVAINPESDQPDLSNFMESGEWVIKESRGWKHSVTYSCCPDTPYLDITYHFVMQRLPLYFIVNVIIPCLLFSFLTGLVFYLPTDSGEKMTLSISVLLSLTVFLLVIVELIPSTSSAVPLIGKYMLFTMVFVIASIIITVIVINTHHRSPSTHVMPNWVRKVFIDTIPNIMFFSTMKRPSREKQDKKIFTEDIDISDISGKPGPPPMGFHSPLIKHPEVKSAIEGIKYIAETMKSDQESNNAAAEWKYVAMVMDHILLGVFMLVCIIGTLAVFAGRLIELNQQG
T1 sequence (P11230 24-501 partner): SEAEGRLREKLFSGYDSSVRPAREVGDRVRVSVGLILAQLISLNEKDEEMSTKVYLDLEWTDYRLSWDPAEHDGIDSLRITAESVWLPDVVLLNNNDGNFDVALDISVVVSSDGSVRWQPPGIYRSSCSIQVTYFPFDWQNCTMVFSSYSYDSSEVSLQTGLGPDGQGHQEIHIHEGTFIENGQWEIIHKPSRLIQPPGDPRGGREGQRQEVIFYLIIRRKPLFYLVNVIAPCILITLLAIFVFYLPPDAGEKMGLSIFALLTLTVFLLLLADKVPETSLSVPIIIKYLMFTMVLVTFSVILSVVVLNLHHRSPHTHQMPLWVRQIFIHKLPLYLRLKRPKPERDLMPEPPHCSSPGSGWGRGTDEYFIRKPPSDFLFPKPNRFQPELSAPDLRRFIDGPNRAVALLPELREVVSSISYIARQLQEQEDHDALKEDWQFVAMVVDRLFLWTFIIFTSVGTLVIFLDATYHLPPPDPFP
T1 sequence (P07510 23-517): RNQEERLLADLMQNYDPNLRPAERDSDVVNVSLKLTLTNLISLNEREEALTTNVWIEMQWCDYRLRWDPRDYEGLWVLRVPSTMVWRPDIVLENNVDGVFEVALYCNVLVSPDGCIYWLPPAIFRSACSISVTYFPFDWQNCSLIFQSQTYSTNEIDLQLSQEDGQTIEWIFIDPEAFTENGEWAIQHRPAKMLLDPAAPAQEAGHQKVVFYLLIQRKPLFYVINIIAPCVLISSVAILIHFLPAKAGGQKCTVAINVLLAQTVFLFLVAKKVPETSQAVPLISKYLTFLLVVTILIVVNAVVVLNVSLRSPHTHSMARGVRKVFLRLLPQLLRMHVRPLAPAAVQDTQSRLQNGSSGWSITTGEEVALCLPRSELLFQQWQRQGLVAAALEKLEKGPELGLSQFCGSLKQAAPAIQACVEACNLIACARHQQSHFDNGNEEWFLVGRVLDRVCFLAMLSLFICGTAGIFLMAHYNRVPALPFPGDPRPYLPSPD
T1 sequence (Q07001 22-517): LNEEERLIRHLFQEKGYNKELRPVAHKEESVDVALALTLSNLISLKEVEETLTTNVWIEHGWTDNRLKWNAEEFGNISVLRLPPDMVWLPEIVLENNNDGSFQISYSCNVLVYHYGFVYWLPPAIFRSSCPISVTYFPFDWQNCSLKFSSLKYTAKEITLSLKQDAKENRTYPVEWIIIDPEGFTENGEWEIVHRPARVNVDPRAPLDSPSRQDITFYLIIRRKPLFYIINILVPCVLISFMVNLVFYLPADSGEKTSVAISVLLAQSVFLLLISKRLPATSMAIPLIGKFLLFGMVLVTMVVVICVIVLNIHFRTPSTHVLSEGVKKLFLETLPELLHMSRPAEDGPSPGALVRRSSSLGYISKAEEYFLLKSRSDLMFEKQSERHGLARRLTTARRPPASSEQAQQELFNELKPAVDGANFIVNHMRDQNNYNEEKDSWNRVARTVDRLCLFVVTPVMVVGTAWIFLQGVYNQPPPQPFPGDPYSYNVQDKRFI

| Structure (SMILES) | activation at 100 µM [%] |
| --- | --- |
| O=C(Nc1ccc(Br)cc1)OC1C2CCN(CC2)C1Cc1cccnc1 (centres unmarked) [Compound 1, 2-((3-pyridinyl)methyl)-1-azabicyclo[2.2.2]oct-3-yl N-(4-bromophenyl)carbamate] | 1 to 12 |
| O=C(Nc1ccc(F)cc1)OC1C2CCN(CC2)C1Cc1cccnc1 (centres unmarked) [Compound 3, 2-((3-pyridinyl)methyl)-1-azabicyclo[2.2.2]oct-3-yl N-(4-fluorophenyl)carbamate] | 1 to 12 |
| COc1ccc(NC(=O)OC2C3CCN(CC3)C2Cc2cccnc2)cc1 (centres unmarked) [Compound 4, 2-((3-pyridinyl)methyl)-1-azabicyclo[2.2.2]oct-3-yl N-(4-methoxyphenyl)carbamate] | 1 to 12 |
| CSc1ccc(NC(=O)OC2C3CCN(CC3)C2Cc2cccnc2)cc1 (centres unmarked) [Compound 5, 2-((3-pyridinyl)methyl)-1-azabicyclo[2.2.2]oct-3-yl N-(4-methylthiophenyl)carbamate] | 1 to 12 |
| O=C(NC1C2CCN(CC2)C1Cc1cccnc1)c1ccc(F)cc1 (centres unmarked) [Compound 8, N-(2-((3-pyridinyl)methyl)-1-azabicyclo[2.2.2]oct-3-yl)-4-fluorobenzamide] | 1 to 12 |
| O=C(NC1C2CCN(CC2)C1Cc1cccnc1)c1cc2ccccc2o1 (centres unmarked) [Compound 9, N-(2-((3-pyridinyl)methyl)-1-azabicyclo[2.2.2]oct-3-yl)benzofuran-2-carboxamide] | 1 to 12 |
| O=C(NC1C2CCN(CC2)C1Cc1cccnc1)c1ccc(Br)cc1 (centres unmarked) [Compound 10, N-(2-((3-pyridinyl)methyl)-1-azabicyclo[2.2.2]oct-3-yl)-4-bromobenzamide] | 1 to 12 |
| O=C(NC1C2CCN(CC2)C1Cc1cccnc1)c1ccccc1 (centres unmarked) [Compound 13, N-(2-((3-pyridinyl)methyl)-1-azabicyclo[2.2.2]oct-3-yl)benzamide] | 1 to 12 |
| COc1cccc(C(=O)NC2C3CCN(CC3)C2Cc2cccnc2)c1 (centres unmarked) [Compound 14, N-(2-((3-pyridinyl)methyl)-1-azabicyclo[2.2.2]oct-3-yl)-3-methoxybenzamide] | 1 to 12 |
| O=C(NC1C2CCN(CC2)C1Cc1cccnc1)c1cccc(Br)c1 (centres unmarked) [Compound 15, N-(2-((3-pyridinyl)methyl)-1-azabicyclo[2.2.2]oct-3-yl)-3-bromobenzamide] | 1 to 12 |
| O=C(Nc1ccccc1)NC1C2CCN(CC2)C1Cc1cccnc1 (centres unmarked) [Compound 16, N-phenyl-N′-(2-((3-pyridinyl)methyl)-1-azabicyclo[2.2.2]oct-3-yl)urea] | 1 to 12 |
| O=C(Nc1ccc(Oc2ccccc2)cc1)NC1C2CCN(CC2)C1Cc1cccnc1 (centres unmarked) [Compound 17, N-(4-phenoxyphenyl)-N′-(2-((3-pyridinyl)methyl)-1-azabicyclo[2.2.2]oct-3-yl)urea] | 1 to 12 |
| CSc1ccc(NC(=O)NC2C3CCN(CC3)C2Cc2cccnc2)cc1 (centres unmarked) [Compound 18, N-(4-methylthiophenyl)-N′-(2-((3-pyridinyl)methyl)-1-azabicyclo[2.2.2]oct-3-yl)urea] | 1 to 12 |
| O=C(Nc1cccc(F)c1)NC1C2CCN(CC2)C1Cc1cccnc1 (centres unmarked) [Compound 19, N-(3-fluorophenyl)-N′-(2-((3-pyridinyl)methyl)-1-azabicyclo[2.2.2]oct-3-yl)urea] | 1 to 12 |
| O=C(Nc1ccc(Br)cc1)NC1C2CCN(CC2)C1Cc1cccnc1 (centres unmarked) [Compound 20, N-(4-bromophenyl)-N′-(2-((3-pyridinyl)methyl)-1-azabicyclo[2.2.2]oct-3-yl)urea] | 1 to 12 |
| COc1ccccc1NC(=O)NC1C2CCN(CC2)C1Cc1cccnc1 (centres unmarked) [Compound 21, N-(2-methoxyphenyl)-N′-(2-((3-pyridinyl)methyl)-1-azabicyclo[2.2.2]oct-3-yl)urea] | 1 to 12 |
| COc1ccc(NC(=O)NC2C3CCN(CC3)C2Cc2cccnc2)c(OC)c1 (centres unmarked) [Compound 22, N-(2,4-dimethoxyphenyl)-N′-(2-((3-pyridinyl)methyl)-1-azabicyclo[2.2.2]oct-3-yl)urea] | 1 to 12 |
| O=C(Nc1ccc(Cl)c(Cl)c1)NC1C2CCN(CC2)C1Cc1cccnc1 (centres unmarked) [Compound 23, N-(3,4-dichlorophenyl)-N′-(2-((3-pyridinyl)methyl)-1-azabicyclo[2.2.2]oct-3-yl)urea] | 1 to 12 |
| COc1ccc(NC(=O)NC2C3CCN(CC3)C2Cc2cccnc2)cc1 (centres unmarked) [Compound 24, N-(4-methoxyphenyl)-N′-(2-((3-pyridinyl)methyl)-1-azabicyclo[2.2.2]oct-3-yl)urea] | 1 to 12 |
| CN(C)c1ccc(NC(=O)NC2C3CCN(CC3)C2Cc2cccnc2)cc1 (centres unmarked) [Compound 25, N-(4-dimethylaminophenyl)-N′-(2-((3-pyridinyl)methyl)-1-azabicyclo[2.2.2]oct-3-yl)urea] | 1 to 12 |
| CN(C(=O)Nc1ccccc1)C1C2CCN(CC2)C1Cc1cccnc1 (centres unmarked) [Compound 26, N-phenyl-N′-methyl-N′-(2-((3-pyridinyl)methyl)-1-azabicyclo[2.2.2]oct-3-yl)urea] | 1 to 12 |
| CN(C(=O)Nc1ccc(Br)cc1)C1C2CCN(CC2)C1Cc1cccnc1 (centres unmarked) [Compound 27, N-(4-bromophenyl)-N′-methyl-N′-(2-((3-pyridinyl)methyl)-1-azabicyclo [2.2.2]oct-3-yl)urea] | 1 to 12 |
| O=C(C=Cc1ccccc1)NC1C2CCN(CC2)C1Cc1cccnc1 (centres unmarked) [Compound 28, N-(2-((3-pyridinyl)methyl)-1-azabicyclo[2.2.2]oct-3-yl)3-phenylprop-2-enamide] | 1 to 12 |
| O=C(C=Cc1ccc(Cl)cc1)NC1C2CCN(CC2)C1Cc1cccnc1 (centres unmarked) [Compound 29, N-(2-((3-pyridinyl)methyl)-1-azabicyclo[2.2.2]oct-3-yl)-3-(4-chlorophenyl)prop-2-enamide] | 1 to 12 |
| O=C(C=Cc1ccc(Br)cc1)NC1C2CCN(CC2)C1Cc1cccnc1 (centres unmarked) [Compound 30, N-(2-((3-pyridinyl)methyl)-1-azabicyclo[2.2.2]oct-3-yl)-3-(4-bromophenyl)prop-2-enamide] | 1 to 12 |
| O=C(C=Cc1cccc(O)c1)NC1C2CCN(CC2)C1Cc1cccnc1 (centres unmarked) [Compound 31, N-(2-((3-pyridinyl)methyl)-1-azabicyclo[2.2.2]oct-3-yl)-3-(3-hydroxyphenyl)prop-2-enamide] | 1 to 12 |
| COc1cccc(C=CC(=O)NC2C3CCN(CC3)C2Cc2cccnc2)c1 (centres unmarked) [Compound 32, N-(2-((3-pyridinyl)methyl)-1-azabicyclo[2.2.2]oct-3-yl)-3-(3-methoxyphenyl)prop-2-enamide] | 1 to 12 |
| O=C(C=Cc1ccccc1F)NC1C2CCN(CC2)C1Cc1cccnc1 (centres unmarked) [Compound 33, N-(2-((3-pyridinyl)methyl)-1-azabicyclo[2.2.2]oct-3-yl)-3-(2-fluorophenyl)prop-2-enamide] | 1 to 12 |
| O=C(C=Cc1ccccc1O)NC1C2CCN(CC2)C1Cc1cccnc1 (centres unmarked) [Compound 34, N-(2-((3-pyridinyl)methyl)-1-azabicyclo[2.2.2]oct-3-yl)-3-(2-hydroxyphenyl)prop-2-enamide] | 1 to 12 |
